According to ChEMBL document CHEMBL1126462, “CP-99,711: a non-peptide glucagon receptor antagonist” (Bioorg Med Chem Lett, 1992):

What was measured:
Glucagon receptor = Glucagon receptor (Rattus norvegicus, UniProt P30082); experiment: Tested against glucagon receptor for its ability to displace radiolabeled ([125I]-glucagon) in […] liver
Rattus norvegicus [1] = species on record: Rattus norvegicus; experiment: Tested for its ability to increase cAMP production (in the absence of glucagon) in rat liver homogenates; no measurable agonist activity; type: functional
Rattus norvegicus [2] = species on record: Rattus norvegicus; experiment: Inhibitory concentration against glucagon receptor -stimulated cAMP production in rat liver homogenates; type: functional

Glucagon receptor, sequence (P30082 whole entry): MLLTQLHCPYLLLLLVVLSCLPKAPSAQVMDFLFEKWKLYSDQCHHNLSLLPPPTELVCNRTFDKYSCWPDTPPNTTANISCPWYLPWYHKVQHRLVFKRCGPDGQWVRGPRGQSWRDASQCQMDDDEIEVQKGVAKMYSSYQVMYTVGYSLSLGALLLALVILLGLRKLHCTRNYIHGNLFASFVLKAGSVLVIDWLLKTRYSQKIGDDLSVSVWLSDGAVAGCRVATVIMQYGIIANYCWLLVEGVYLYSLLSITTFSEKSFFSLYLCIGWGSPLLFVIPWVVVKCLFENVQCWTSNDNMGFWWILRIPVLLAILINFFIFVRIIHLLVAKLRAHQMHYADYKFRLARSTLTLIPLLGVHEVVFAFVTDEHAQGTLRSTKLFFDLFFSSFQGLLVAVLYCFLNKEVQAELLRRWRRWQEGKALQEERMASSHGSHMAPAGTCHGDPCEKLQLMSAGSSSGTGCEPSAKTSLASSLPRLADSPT

Structure (SMILES): CN(C)CCCN(C)c1nc2cc(Cl)c(Cl)cc2nc1/C=C/c1ccccc1
- IC50 (Glucagon receptor): 4 µM
- IC50 (Rattus norvegicus [1]): > 32 µM
- IC50 (Rattus norvegicus [2]): 7 µM
